# Tests used:
# Type in all cases: in vivo
# [1] = system: two-spotted mite (Tetranychus urticae Koch); experiment: Mite Foliage Spray Test; design: key: A: excellent control; B: partial control; C: no control; settings: 500 ppm foliage spray, six days, mortality rating
# Procedure: (§1) Suspensions of the test compounds were prepared by dissolving one gram of compound in 50 milliliters of acetone in which had been dissolved 0.1 gram (10 percent of the weight of compound) of an alkylphenoxy polyethoxyethanol surfactant, as an emulsifying or dispersing agent. The resulting solution was mixed into 150 milliliters of water to give roughly 200 milliliters of a suspension containing the compound in finely divided form. The thus-prepared stock suspension contained 0.5 percent by weight of compound. The test concentrations in parts per million by weight employed in the tests described hereinbelow were obtained by appropriate dilutions of the stock suspension with water. The test procedures were as follows:
# Adults and nymphal stages of the two-spotted mite (Tetranychus urticae Koch), reared on Tendergreen bean plants at 80±5 percent relative humidity, were the test organisms. Infested leaves from a stock culture were placed on the primary leaves of two bean plants six to eight inches in height, growing in a two-and-a-half inch clay pot. 150-200 Mites, a sufficient number for testing, transferred from the excised leaves to the fresh plants in a period of twenty four hours. Following the twenty four hour transfer period, the excised leaves were removed from the infested plants. The test compounds were formulated by diluting the stock suspension with water to give a suspension containing 500 parts of test compound per million parts of final formulation. The potted plants (one pot per compound) were placed on a revolving turntable and sprayed with 100-110 milliliters of test compound formulation by use of a DeVilbiss spray gun set at 40 psig. air pressure. This application, which lasted 25 seconds, was sufficient to wet the plants to run-off. As a control, 100-110 milliliters of a water solution containing acetone and emulsifier in the same concentrations as the test compound formulation, but containing no test compound, were also sprayed on infested plants. The sprayed plants were held at 80±5 percent relative humidity for six days, after which a mortality count of motile forms was made. Microscopic examination for motile forms was made on the leaves of the test plants. Any individual which was capable of locomotion upon prodding was considered living.
# (§2) In these tests the pesticidal activity of the compounds against aphid, mite, Southern Armyworm, Bean Beetle and house fly was rated as follows: […]
# [2] = system: bean aphid (Aphis fabae Scop.); experiment: Bean Aphid Foliage Spray Test; design: key: A: excellent control; B: partial control; C: no control; settings: 500 ppm foliage spray, 24 hours, mortality rating
# Procedure: as §1
# Bean Aphid Foliage Spray Test
# Adults and nymphal stages of the bean aphid (Aphis fabae Scop.) reared on potted dwarf nasturtium plants at 65°-70° F. and 50-70 percent relative humidity, constituted the test insects. For testing purposes, the number of aphids per pot was standardized to 100-150 by trimming plants containing excess aphids.
# The test compounds were formulated by diluting the stock suspension with water to give a suspension containing 500 parts of test compound per million parts of final formulation.
# The potted plants (one pot per compound tested) infested with 100-150 aphids, were placed on a revolving turntable and sprayed with 100-110 milliliters of test compound formulation by use of a DeVilbiss spray gun set at 40 psig. air pressure. This application, which lasted 25 seconds, was sufficient to wet the plants to run-off. As a control, 100-110 milliliters of a water-acetone-emulsifier solution containing no test compound were also sprayed on infested plants. After spraying, the pots were placed on their sides on a sheet of white standard mimeograph paper which had been previously ruled to facilitate counting. Temperature and humidity in the test room during the 24 hour holding period were 65°-70° F. and 50-70 percent, respectively. Aphids which fell onto the paper and were unable to remain standing after being uprighted were considered dead. Aphids remaining on the plants were observed closely for movement and those which were unable to move the length of the body upon stimulation by prodding were considered dead. Percent mortality was recorded for various concentration levels.
# as §2
# [3] = system: Mexican bean beetle (Epilachna varivestis, Muls.); experiment: Mexican Bean Beetle Leaf Spray Test; design: key: A: excellent control; B: partial control; C: no control; settings: 500 ppm leaf spray, fourth instar larvae, three days, mortality rating
# Procedure: as §1
# Mexican Bean Beetle Leaf Spray Test
# Fourth instar larvae of the Mexican bean beetle (Epilachna varivestis, Muls.), reared on Tendergreen bean plants at a temperature of 80°±5° F. and 50±5 percent relative humidity, were the test insects.
# The test compounds were formulated by diluting the stock suspension with water to give a suspension containing 500 parts of test compound per million parts of final formulation. Potted Tendergreen bean plants of standard height and age were placed on a revolving turntable and sprayed with 100-110 milliliters of test compound formulation by use of a DeVilbiss spray gun set at 10 psig air pressure. This application, which lasted 25 seconds, was sufficient to wet plants to run-off. As a control, 100-110 milliliters of a water-acetone-emulsifier solution containing no test compound were also sprayed on infested plants. When dry, the paired leaves were separated and each was placed in a 9 centimeter Petri dish lined with moistened filter paper. Five randomly selected larvae were introduced into each dish, and the dishes were closed. The closed dishes were labeled and held at a temperature of 80°±5° F. for three days. Although the larvae could easily consume the leaf within 24 to 48 hours, no more food was added. Larvae which were unable to move the length of the body, even upon stimulation, were considered dead.
# as §2
# [4] = system: house flies (Musca domestica, L.); experiment: Fly Bait Test; design: key: A: excellent control; B: partial control; C: no control; settings: 500 ppm in sugar-solution bait, 24 hours, mortality rating
# Procedure: as §1
# Four to six day old adult house flies (Musca domestica, L.) reared according to the specifications of the Chemical Specialties Manufacturing Association (Blue Book, McNair-Dorland Co., N.Y. 1954; pages 243-244, 261) under controlled conditions of 80°±5° F. and 50±5 percent relative humidity, were the test insects. The flies were immobilized by anesthetizing with carbon dioxide and twenty five immobilized individuals, males and females, were transferred to a cage consisting of a standard food strainer about five inches in diameter which was inverted over a wrapping-paper-covered surface. The test compounds were formulated by diluting the stock suspension with a 10 percent (by weight) sugar solution to give a suspension containing 500 parts of test compound per million parts of final formulation, by weight. Ten milliliters of the test formulation were added to a souffle cup containing a one-inch square of an absorbent cotton pad. This bait cup was introduced and centered on the blotting paper under the food strainer prior to admitting the anesthetized flies. The caged flies were allowed to feed on the bait for twenty four hours, at a temperature of 80°±5° F. and the relative humidity of 50±5 percent.
# as §2
# Cotton = settings: 2500 ppm spray, ten days, rating 1-5
# Procedure: (§3) POST-EMERGENT HERBICIDAL TEST
# (§4) Experiments were also conducted to determine the phytotoxicity of representative compositions with respect to healthy fresh plants. Solutions of the compounds were prepared as described above to provide a concentration of 2500 parts per million of the test compound. The test plants were sprayed in accordance with the procedure described above for the Mite Foliage Spray Test so as to deliver approximately 100 milliliters of test solution to the leaves of each plant tested. The sprayed plants and controls were set aside for approximately one hour to allow the solutions to dry and were then placed in the greenhouse. After ten days the plants were visually inspected to determine the extent of foliage injury. A rating of 1 indicates no perceptible injury; 5 indicates the plant was dead and ratings of 2, 3 and 4 indicate intermediate degrees of injury based upon the number and extent to which leaves were injured.
# Soybean = settings: 2500 ppm spray, ten days, rating 1-5
# Procedure: as §3, §4
# Corn = settings: 2500 ppm spray, ten days, rating 1-5
# Procedure: as §3, §4
# Bean = settings: 2500 ppm spray, ten days, rating 1-5
# Procedure: as §3, §4
# Tomato = settings: 2500 ppm spray, ten days, rating 1-5
# Procedure: as §3, §4
# [5] = system: southern armyworm (Prodenia eridania, (Cram.)); experiment: Southern Armyworm Leaf Spray Test; design: key: A: excellent control; B: partial control; C: no control; settings: 500 ppm leaf spray, larvae, three days, mortality rating
# Procedure: as §1
# Southern Armyworm Leaf Spray Test
# Larvae of the southern armyworm (Prodenia eridania, (Cram.)), reared on Tendergreen bean plants at a temperature of 80°±5° F. and a relative humidity of 50±5 percent, constituted the test insects.
# The test compounds were formulated by diluting the stock suspension with water to give a suspension containing 500 parts of test compound per million parts of final formulation. Potted Tendergreen bean plants of standard height and age were placed on a revolving turntable and sprayed with 100-110 milliliters of test compound formulation by use of a DeVilbiss spray gun set at 10 psig air pressure. This application, which lasted 25 seconds, was sufficient to wet plants to run-off. As a control, 100-110 milliliters of a water-acetone-emulsifier solution containing no test compound were also sprayed on infested plants. When dry, the paired leaves were separated and each one was placed in a 9 centimeter Petri dish lined with moistened filter paper. Five randomly selected larvae were introduced into each dish and the dishes were closed. The closed dishes were labeled and held at 80°-85° F. for three days. Although the larvae could easily consume the whole leaf within twenty-four hours, no more food was added. Larvae which were unable to move the length of the body, even upon stimulation by prodding, were considered dead. Percent mortality was recorded for various concentration levels.
# as §2
compound,measurement,setting,value
CN(SN(C)C(=O)Oc1ccc(Oc2ccccc2)cc1)C(=O)Oc1ccc(Oc2ccccc2)cc1,"Pesticidal Activity, Mite",[1],C
same,"Pesticidal Activity, Aphid",[2],C
same,"Pesticidal Activity, Mexican Bean Beetle",[3],C
same,"Pesticidal Activity, House fly",[4],C
same,"Phytotoxicity, Cotton",Cotton,1
same,"Phytotoxicity, Soybean",Soybean,1
same,"Phytotoxicity, Corn",Corn,1
same,"Phytotoxicity, Bean",Bean,1
same,"Phytotoxicity, Tomato",Tomato,1
same,"Pesticidal Activity, Southern Armyworm",[5],C

# Reference: US4264625A, “Pesticidal unsymmetrical bis-arylcarbamate sulfide compounds” (Union Carbide Corporation, priority 1978, dated 1981)
